Data reported in publication PMC2642980 (Bioorganic & medicinal chemistry letters, 2008).

Columns and labels:
cowpox virus = format: cell-based; conditions: read-out: EC50 Cowpox
Caco-2 monolayers = assay: Transepithelial transport through Caco-2 monolayers; conditions: apical pH 6.0 MES to basolateral pH 7.4 HEPES, 21 days post-seeding
[1] = cited from earlier work
vaccinia virus = format: cell-based; conditions: read-out: EC50 Vaccinia
[2] = rat
[3] = target: T1, human PEPT1 transporter (HeLa/hPEPT1 cells) (Homo sapiens, UniProt P46059); assay: Direct uptake in HeLa cells overexpressing hPEPT1; conditions: fold uptake over control cells not expressing PEPT1
T1 sequence (P46059 1-708): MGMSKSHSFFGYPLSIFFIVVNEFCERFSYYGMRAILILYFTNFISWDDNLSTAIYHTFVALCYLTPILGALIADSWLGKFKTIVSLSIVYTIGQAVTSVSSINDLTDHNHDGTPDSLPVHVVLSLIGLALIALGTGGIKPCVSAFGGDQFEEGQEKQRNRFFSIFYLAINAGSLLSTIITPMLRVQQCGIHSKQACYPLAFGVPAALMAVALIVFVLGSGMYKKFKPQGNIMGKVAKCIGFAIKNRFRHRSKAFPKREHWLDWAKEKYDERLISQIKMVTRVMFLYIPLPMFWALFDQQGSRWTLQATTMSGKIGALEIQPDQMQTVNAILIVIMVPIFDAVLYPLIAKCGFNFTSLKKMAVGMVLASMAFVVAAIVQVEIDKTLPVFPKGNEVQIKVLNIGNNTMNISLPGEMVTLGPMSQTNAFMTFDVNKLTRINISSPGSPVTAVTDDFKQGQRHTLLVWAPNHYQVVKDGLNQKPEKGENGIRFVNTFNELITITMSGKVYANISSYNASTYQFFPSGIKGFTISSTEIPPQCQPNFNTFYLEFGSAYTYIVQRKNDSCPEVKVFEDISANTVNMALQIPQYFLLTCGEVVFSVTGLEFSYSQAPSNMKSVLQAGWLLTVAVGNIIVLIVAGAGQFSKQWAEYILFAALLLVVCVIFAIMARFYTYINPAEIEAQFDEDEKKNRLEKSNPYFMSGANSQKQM

[4] = cited from earlier work; remark: listed apart in the source

Row | Molecule | Caco-2 permeability (Caco-2 monolayers) | hPEPT1 control (uptake ratio HeLa/hPEPT1 over HeLa control) [3] | other results
1 | 1-Beta-D-arabinofuranosyladenine [Vidarabine] | 0.083 cm/s × 10^6 |  | EC50 (cowpox virus): 12.6 µM; Solubility in water [1]: ~ 0.47 mg/ml; EC50 (vaccinia virus): 6.2 µM; T1/2 Plasma [2]: 25.8 min
2 | CC(C)[C@@H](N)C(=O)OC[C@H]1O[C@@H](n2cnc3c(N)ncnc32)[C@@H](O)[C@@H]1O [Compound 7a] | 0.601 cm/s × 10^6 |  | 
3 | CC(C)[C@H](N)C(=O)OC[C@H]1O[C@@H](n2cnc3c(N)ncnc32)[C@@H](O)[C@@H]1O [Compound 7i] |  | 20.7 | 
4 | CC[C@H](C)[C@H](N)C(=O)OC[C@H]1O[C@@H](n2cnc3c(N)ncnc32)[C@@H](O)[C@@H]1O [Compound 7k] | 1.026 cm/s × 10^6 | 26.9 | 
5 | Nc1ncnc2c1ncn2[C@@H]1O[C@H](COC(=O)[C@@H](N)Cc2ccccc2)[C@@H](O)[C@@H]1O [Compound 7l] | 0.668 cm/s × 10^6 |  | 
6 | CC(C)[C@H](N)C(=O)OCCOCn1cnc2c(=O)[nH]c(N)nc21 [Valacyclovir] |  | 19.0 | 
7 | O=c1[nH]cnc2c1ncn2[C@@H]1O[C@H](CO)[C@@H](O)[C@@H]1O [ara-H, ara-hypoxanthine] |  |  | Fold less potent than vidarabine (antiviral activity) [4]: at least 10 fold
